Assay results as given in PMC7190706, “A Self-Assembling Lipidic Peptide and Selective Partial V2 Receptor Agonist Inhibits Urine Production” (Scientific Reports, 2020).
pEC50: −log10 of the molar value. Blank lines part the entries; values can stand above or below the compound they belong to.

Assays:
OT receptor = target: T1, OT receptor (Rattus norvegicus, UniProt P70536); assay: OT induced contractions of isolated uterine strips (organ bath); conditions: for 1/Rmax of double reciprocal plot (1/R vs 1/[OT]): Rmax = maximum contractile response in cm
T1 construct: OT receptors from rat uterine strips for our receptor activity assays; from tissue; host or cells: uterine strips of female Wistar rats
T1 sequence (P70536 1-388): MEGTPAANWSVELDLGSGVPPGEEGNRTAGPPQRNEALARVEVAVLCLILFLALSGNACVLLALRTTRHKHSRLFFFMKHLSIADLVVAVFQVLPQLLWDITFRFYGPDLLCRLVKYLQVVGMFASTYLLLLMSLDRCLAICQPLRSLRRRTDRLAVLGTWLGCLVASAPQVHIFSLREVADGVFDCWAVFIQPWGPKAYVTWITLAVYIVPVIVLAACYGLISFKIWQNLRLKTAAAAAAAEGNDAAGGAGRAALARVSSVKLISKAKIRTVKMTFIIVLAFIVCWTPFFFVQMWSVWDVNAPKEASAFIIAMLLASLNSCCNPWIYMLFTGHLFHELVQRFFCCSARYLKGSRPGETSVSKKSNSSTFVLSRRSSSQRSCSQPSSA
From the text: The uterus was excised and dissected into longitudinal strips (0.5 ×1.3–1.4 cm) from the anti-mesometrial side of the mid-portion of horns which contained implantation sites.
Only one strip from each animal was used. The uterine strip was tied at the bottom end to a fixed metal hook and at the top end to a force displacement transducer (Harvard Instruments, Kent, UK) using a cotton thread. The force displacement transducer was coupled to an amplifier driving a direct writing oscillograph (Universal Oscillograph, Harvard, Kent, UK). A cumulative dose procedure was used and isotonic contractions recorded.
DMF was added as DMF had been used to solubilise METx. […] The mean peak amplitude (MPA) was calculated from Eq. 1.1 MPA=ΣPH/n where PH = peak heights obtained within the 10 minute period immediately after addition of METx, OT or dimethylformamide and n = number of peaks within the same 10 minute period. The frequency of isotonic contractions was also evaluated during the 10 minute period immediately after the addition of METx, OT or dimethylformamide.
The organ bath was not washed out until a maximal response was reached. The MPA was calculated as shown in Equation 1, except that the recordings were done after the addition of each dose of OT and the MPA was calculated over a 5 minute period. To quantify the effect of METx on OT induced contractions, METx (final bath concentration = 0.1, 0.3 or 0.6 µM) was added to the organ bath prior to the addition of OT (Table 2 – Supplementary Information). […] Results were plotted as a percentage of the maximum contraction obtained with KCl against concentration. A double reciprocal plot was used to assess the nature of the receptor antagonism observed.
(1 picture or pasted object on this page, not shown here)

V2 receptor = target: T2, V2 receptor (Canis lupus familiaris, UniProt O77808); assay: V2 receptor agonism, cAMP accumulation in MDCK cells (cAMP EIA); format: cell-based, dog
T2 construct: MDCK cells expressing the V2 receptor were cultured; endogenous in cells; host or cells: MDCK cells
Description: We thus used the V2 receptor from MDCK cells, V1a receptors from A7r5 cells and OT receptors from rat uterine strips for our receptor activity assays.
MDCK cells expressing the V2 receptor were cultured in Eagle’s Essential Minimum Medium (EMEM) supplemented with foetal bovine serum (FBS, 10% v/v), L-Glutamine (1% v/v) and non-essential amino acids (NEAA 1% v/v). […] The cell culture medium was changed every 2 days. Cells were sub-cultured every 7 days or upon reaching confluence using trypsin/ ethylene diamine tetraacetic acid (EDTA) (0.25%w/v trypsin/ 0.01%w/v EDTA in phosphate buffered saline, 3 mL) solution to dissociate the cells and the cells reseeded at one third of their original density.
The cell culture media was changed daily. On the day of the experiment, the cells were washed with Dulbecco’s phosphate-buffered saline (DPBS) without calcium and magnesium and incubated for 1 hour in cell culture medium with isobutyl methylxanthine (IBMX, 0.5 mM). IBMX is a phosphodiesterase inhibitor that prevents the breakdown of cAMP within the cells; allowing for total quantification of the analyte cAMP. […]
for total quantification of the analyte cAMP. […]
was quantified from the cell lysate (0.1 mL) using a competition based EIA as per the […]
acid (0.1 M, 0.1 mL) and the plates read at 450 nm using an ELx808 microplate reader […]
concentration of cAMP per well was determined from equation 1. […]

MDCK cell line = conditions: read-out: EC50 functional activity (fluid secretion); cited from earlier work
[1] = test system: spontaneous uterine contractions; assay: Spontaneous contractions of isolated uterine strips (organ bath); set-up: species or system rat; conditions: METx 41 nM
Description: Female Wistar rats (203–225 g) were killed with CO2 on the day of the experiments. The uterus was excised and dissected into longitudinal strips (0.5 ×1.3–1.4 cm) from the anti-mesometrial side of the mid-portion of horns which contained implantation sites.
The uterine strips were suspended in an organ bath that contained physiological salt solution (PSS, 25 ml: 116 mM NaCl, 4.6 mM KCl, 1.16 mM NaH2PO4.H2O, 1.16 mM MgSO4.7H2O, 21.9 mM NaHCO3, 1.8 mM CaCl2.2H2O, 11.6 mM dextrose, 0.03 mM CaNa2EDTA, pH = […]). The water-jacketed bath was maintained at 36 °C and aerated with a mixture of 95% O2 and 5% CO2. Only one strip from each animal was used. The uterine strip was tied at the bottom end to a fixed metal hook and at the top end to a force displacement transducer (Harvard Instruments, Kent, UK) using a cotton thread. The force displacement transducer was coupled to an amplifier driving a direct writing oscillograph (Universal Oscillograph, Harvard, Kent, UK). A cumulative dose procedure was used and isotonic contractions recorded.
To quantify the effect of METx on spontaneous uterine contractions the myometrial strips from the same uterus as above, but from the opposite horn, were equilibrated for 60 min within the organ bath and then a single dose of DMF applied followed by doses of METx as shown in Table 1 in the Supplementary Information. […]

[2] = Plasma stability in 30% rat plasma, HPLC; format: in vitro ADME; conditions: 37 °C
Description: The plasma stability of METx was evaluated prior to an in vivo study. Blood was collected from male Sprague Dawley rats (n = 3, 200–250 g) into a vacutainer coated with ethylene diamine tetra-acetic acid (EDTA) and kept on ice (4 °C) until the plasma could be separated by centrifugation (10 min at 2000g and 4 °C, Hermle z323k centrifuge, HERMLE Labortechnik, Germany). The separated rat plasma was stored at −20 °C until required. On the day of the experiment, the plasma was thawed just prior to the experiment and diluted to 30% v/v using NaCl (0.9%). METx (7.2 × 10^−4M, 50 μL) was added to the diluted plasma (30% v/v, 450μL) that had been allowed to warm for 30 minutes at 37 °C either as a solution in dimethylsulfoxide or as a GCPQ nanoparticle formulation dispersed in water. The formulations and free drug were incubated at 37 °C with shaking for a maximum of 4 hours. At regular time intervals aliquots (50μL) were removed and mixed with dimethylformamide (150μL) to dissolve the METx and precipitate the plasma proteins. Samples were then immediately vortexed and centrifuged for 10 minutes at 13,000 rpm (MSE micro centaur centrifuge, MSE, UK). The supernatant (100μL) was collected and 40 μL was analysed using a reverse phase high performance liquid chromatography (HPLC) method. HPLC analyses was performed using an Agilent 1200 HPLC system (Agilent Technologies, UK) equipped with a quaternary pump, degasser, autosampler and a UV detector. Samples were chromatographed over a reverse phase column: Phenomenex Onyx Monolithic C18 column (5μm, 4.6 ×100 mm, Phenomenex, UK) connected in series with a guard column (5μm, 4.6 ×10 mm). The column temperature was kept constant at 35 °C. Separation was performed using an acetonitrile, water mobile phase gradient method (Table 3 – Supplementary Information) at a flow rate of 1.5 mL per minute, with detection at a wavelength of 280 nm.

[3] = Spontaneously voided urine volume and osmolality after intravenous injection in healthy rats; format: in vivo; conditions: METx (5: 1) nanoparticle formulation, rat
Description: Male Sprague Dawley rats (220–250 g) were housed five per cage in an air conditioned unit maintained at 20–22 °C and 50–60% humidity, with lighting controlled on a twelve-hour cycle. The lights were switched on at 07:00 and off at 19:00. Animals were allowed free access to standard rodent chow and water. Before experimentation, animals were habituated for 7 days within the unit. Prior to testing animals were acclimatised to the procedure room for 1 hour. Animals were also acclimatised to the metabolic cages for 20 minutes per day for 5 days before the day of experiment. Animals were randomly assigned into one of four groups; untreated, and animals receiving an intravenous injection of 10, 20 or 40 mg kg^−1 of METx as a GCPQ, METx (5: 1) nanoparticle formulation (n = 3) in a dose volume of 0.9 mL. The formulations were freshly prepared on the morning of the experiment as described above and the pH of the formulation adjusted to pH = 7 using sodium hydroxide (1 M). After receiving their METx formulations, animals were placed within individual metabolic cages (Techniplast, Italy) with access to water. Spontaneously voided urine was collected for 4 hours. Urine osmolality was determined by freezing point depression using a Type 5r osmometer (Loser, Germany).

V1a receptor = target: T3, V1a receptor (Rattus norvegicus, UniProt P30560); assay: V1a receptor agonism, IP-1 ELISA in A7r5 cells; format: cell-based
T3 construct: V1a receptors from A7r5 cells; endogenous in cells; host or cells: A7r5 rat smooth muscle cells
From the text: microplate reader. […] The
hours. […] The cells were
manufacturer’s instructions.

human V1a receptor = test system: human V1a receptor; set-up: method as in PMID 22375852; conditions: cited from earlier work

T2 sequence (O77808 whole entry): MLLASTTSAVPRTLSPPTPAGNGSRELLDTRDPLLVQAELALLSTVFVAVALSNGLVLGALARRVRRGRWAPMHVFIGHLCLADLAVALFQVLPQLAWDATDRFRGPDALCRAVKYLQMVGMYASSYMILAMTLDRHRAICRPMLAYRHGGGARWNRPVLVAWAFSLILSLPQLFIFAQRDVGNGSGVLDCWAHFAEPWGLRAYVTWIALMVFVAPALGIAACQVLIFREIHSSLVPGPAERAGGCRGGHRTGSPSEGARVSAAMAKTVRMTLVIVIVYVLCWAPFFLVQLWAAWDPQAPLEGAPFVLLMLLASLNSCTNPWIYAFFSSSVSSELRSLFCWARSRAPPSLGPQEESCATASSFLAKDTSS
T3 sequence (P30560 whole entry): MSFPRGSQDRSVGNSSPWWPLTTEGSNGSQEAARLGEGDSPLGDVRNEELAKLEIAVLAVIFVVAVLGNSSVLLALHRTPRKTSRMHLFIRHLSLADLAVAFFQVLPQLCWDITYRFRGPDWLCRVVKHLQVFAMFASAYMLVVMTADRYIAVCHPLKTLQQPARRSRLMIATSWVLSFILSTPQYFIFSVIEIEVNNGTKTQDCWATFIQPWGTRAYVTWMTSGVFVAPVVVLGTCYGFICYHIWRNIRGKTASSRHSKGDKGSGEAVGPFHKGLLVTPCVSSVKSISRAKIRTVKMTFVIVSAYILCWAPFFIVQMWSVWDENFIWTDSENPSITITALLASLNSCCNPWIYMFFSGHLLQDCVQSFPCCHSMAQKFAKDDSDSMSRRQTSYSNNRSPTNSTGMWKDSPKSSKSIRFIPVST

Compound: CC[C@H](C)[C@@H]1NC(=O)[C@H](Cc2ccc(O)cc2)NC(=O)[C@@H](N)CSSC[C@@H](C(=O)N2CCC[C@H]2C(=O)N[C@@H](CC(C)C)C(=O)NCC(N)=O)NC(=O)[C@H](CC(N)=O)NC(=O)[C@H](CCC(N)=O)NC1=O [OT, oxytocin, reference compound]
pEC50 (OT receptor): 10.09

Compound: N=C(N)NCCC[C@H](NC(=O)[C@@H]1CCCN1C(=O)[C@@H]1CSSC[C@H](N)C(=O)N[C@@H](Cc2ccc(O)cc2)C(=O)N[C@@H](Cc2ccccc2)C(=O)N[C@@H](CCC(N)=O)C(=O)N[C@@H](CC(N)=O)C(=O)N1)C(=O)NCC(N)=O [AVP, arginine vasopressin, reference compound]
concentration at which the maximal cAMP response was seen (V2 receptor): 100 nM
pEC50 (MDCK cell line): 9.44

concentration at which the maximal cAMP response was seen (V2 receptor): 10 nM
OT antagonist concentration relative to EC50 at the V2 receptor (OT receptor; 300 nM versus V2 EC50): 100 fold
shift of the OT dose response curve to the right (OT receptor; METx 300 nM and 600 nM, amplitude of OT induced contractions, p < 0.05): two orders of magnitude
nature of antagonism at the OT receptor (OT receptor; from double reciprocal plots): non-competitive antagonist
1/Rmax of double reciprocal plot (1/R vs 1/[OT]) (OT receptor; inhibitor 100 nM): 0.48
1/Rmax of double reciprocal plot (1/R vs 1/[OT]) (OT receptor; inhibitor 300 nM): 0.97
1/Rmax of double reciprocal plot (1/R vs 1/[OT]) (OT receptor; inhibitor 600 nM): 1.33
concentration at which antagonism at the OT receptor starts (OT receptor; uterine strips): 300 nM
degradation over the 4 hour incubation ([2]; 30% rat plasma, 4 hour): completely degraded
time to complete degradation ([2]; 30% v/v rat plasma): ≤ 60 min
Compound: CCCCCCCCCCCCCCCC(=O)NCCCC[C@H](NC(=O)CNC(=O)[C@H](CC(C)C)NC(=O)[C@@H]1CCCN1C(=O)[C@@H]1CSSC[C@H](N)C(=O)N[C@@H](Cc2ccc(O)cc2)C(=O)N[C@@H]([C@@H](C)CC)C(=O)N[C@@H](CCC(N)=O)C(=O)N[C@@H](CC(N)=O)C(=O)N1)C(=O)O [METx]
effect on OT induced contractions (OT receptor; 100 nm of inhibitor): not effective in reducing OT induced contractions
effect on spontaneous uterine contractions [1]: no effect
order of stability ([2]; 30% rat plasma): METx, Polymer (1: 5)> METx, Polymer (1: 7)> METx> METx, Polymer (1: 4)
osmolality of the urine ([3]; 20 mg kg^−1 intravenous as GCPQ): increased significantly
urine production ([3]; 40 mg kg^−1 intravenous as GCPQ, 4 hour observation period): no urine at all
spontaneously voided urine volume, dose dependence ([3]; 10, 20 or 40 mg kg^−1 intravenous as GCPQ, 4 hours): dose correlated reduction in urine production

Compound: desmopressin
agonism at the V1a receptor (V1a receptor): not an agonist at the V1a receptor
pEC50 (MDCK cell line): 9.15
affinity for the human V1a receptor (human V1a receptor): does not show any affinity
